Source: patent publication US10238630B2, “Use of eribulin and poly (ADP ribose) polymerase (PARP) inhibitors as combination therapy for the treatment of cancer” (Eisai R&D Management Co., Ltd., priority 2014, dated 2019)
“Also recorded” adds a separate entry of the source. Counter-ions that a name gives are not always drawn.

Tests used:
[1] = system: MDA-MB-468 human breast cancer xenografts; test: Antitumor activity against subcutaneous MDA-MB-468 human breast cancer xenografts in athymic mice; assay type: in vivo
Protocol: MDA-MB-468 human triple negative breast cancer cells are wild type for BRCA1 and 2 and PTEN null. Cells were maintained in monolayer cultures in RPMI-1640 growth medium supplemented with 10% fetal bovine serum at 37° C. in a 5% CO2 humidified incubator. On the day of inoculation, cells were harvested by trypsinization, washed, and resuspended in ice-cold PBS. Female immunodeficient athymic mice were inoculated subcutaneously near the right axillary area with MDA-MB-468 cells (5×10^6) in a 1:1 ratio (50 μL each) with matrigel in a volume of 0.1 mL in phosphate buffered saline using a 26-gauge needle. A total of 60 mice, approximately 8 weeks old were implanted with MDA-MB-468 cells.
E7449 and E7389 were evaluated as single agents and in combination for antitumor activity against MDA-MB-468 human breast cancer xenografts in athymic mice. The experiment consisted of a vehicle control group, an E7449 single agent group, two groups treated with single agent E7389 and 2 combination drug-treated groups (Table 4). Sixty mice were inoculated with MDA-MB-468 cells. On day 7 following implantation, tumor volumes were measured and mice were randomized into the 6 treatment groups based on tumor volume (average of 180 mm^3). Following randomization drug treatment was initiated. Each group was composed of 6 mice for a total of 36 mice on the first day of treatment. E7449 was formulated in 0.5% methyl cellulose and orally administered daily at 100 mg/kg based on body weight at 0.1 mL per 10 g. E7449 was administered once daily for 28 days (starting on Day 7) as a single agent or in combination. E7389 was formulated in saline and was intravenously administered once every 4 days, 3 times (Day 7, 11, and 15) at a dosage of 0.1 or 0.4 mg/kg as single agent or in combination with E7449, based on body weight at 0.1 mL per 10 g. The control group was treated with oral vehicle (0.5% methyl cellulose in water) daily and intravenous vehicle (saline) once every 4 days, 3 times. E7449 or vehicle was administered first and when dosing of all animals was complete, E7389 was administered to animals receiving the combination.
Drug treatment was initiated 7 days post tumor implantation and continued for 28 days. Animals whose tumor measurement reached […] at the longest axis or whose tumor became ulcerated were euthanized prior to study termination. The study was terminated on Day 52. Statistical analysis was performed on Days 35 and 52.
Statistical analysis of the vehicle group (A) versus the drug-treated groups (B, C, D, E, and F) was performed by a one way analysis of variance (ANOVA) for tumor volume followed by Dunnett's multiple comparisons test. The analysis was performed at vehicle endpoint on Day 35 of the study. […]

[2] = system: MDA-MB-436 human breast cancer xenografts; test: Antitumor activity against subcutaneous MDA-MB-436 human breast cancer xenografts in SCID mice (three studies); assay type: in vivo
Protocol: MDA-MB-436 human triple negative breast cancer cells are BRCA1 mutant and PTEN null. Cells were maintained in monolayer cultures in RPMI-1640 growth medium supplemented with 10% fetal bovine serum at 37° C. in a 5% CO2 humidified incubator. On the day of inoculation, cells were harvested by trypsinization, washed, and resuspended in ice-cold PBS. Female immunodeficient SCID mice were inoculated subcutaneously near the right axillary area with MDA-MB-436 cells (5×10^6) in a 1:1 ratio (50 μL each) with Matrigel™ in a volume of 0.1 mL in phosphate buffered saline, using a 26-gauge needle. A total of 125 mice, approximately 6 weeks old were implanted with MDA-MB-436 cells.
E7449, carboplatin and E7389 were evaluated as single agents and in combination for antitumor activity against MDA-MB-436 human breast cancer xenografts in SCID mice. Three separate studies were performed. The first experiment consisted of a vehicle control group, an E7449 single agent group, two groups treated with single agent E7389 and 2 combination drug-treated groups (Table 1). Thirty mice were inoculated with MDA-MB-436 cells and on Day 58 following implantation, tumor volumes were measured and mice were randomized into the 6 treatment groups based on tumor volume (average of 300 mm^3). Following randomization, drug treatment was initiated. Groups A to D were composed of 5 mice and groups E and F consisted of 4 mice for a total of 28 mice on the first day of treatment. E7449 was formulated in 0.5% methyl cellulose and orally administered once daily for 28 days (starting on Day 58) at 60 mg/kg based on body weight at 0.1 mL per 10 g. E7389 was formulated in saline and was intravenously administered once every 4 days, 4 times (Day 58, 62, 66, and 70) at a dosage of 0.4 or 1.6 mg/kg as single agent or in combination with E7449, based on body weight at 0.1 mL per 10 g. The control group was treated with oral vehicle (0.5% methyl cellulose in water) daily and intravenous vehicle (saline) once every 4 days, 4 times. E7449 or vehicle was administered first and when dosing of all animals was complete, E7389 was administered to animals receiving the combination.
The second experiment consisted of a vehicle control group, an E7449 single agent group, 2 groups treated with single agent carboplatin, and 2 combination drug-treated groups (Table 2). Thirty-five mice were inoculated with MDA-MB-436 cells and on Day 57, following implantation, tumor volumes were measured and mice were randomized into 6 treatment groups based on tumor volume (average of 250 mm^3). Following randomization drug treatment was initiated. Groups A to D were composed of 5 mice and groups E and F consisted of 6 mice for a total of 32 mice on the first day of treatment. E7449, formulated in 0.5% methyl cellulose was orally administered daily for 28 days (starting on Day 57), at 60 mg/kg based on body weight at 0.1 mL per 10 g. Carboplatin was formulated in saline and was intravenously administered once on the first day of treatment (Day 57) at a dosage of 15 or 60 mg/kg as a single agent or in combination with E7449 based on body weight at 0.1 mL per 10 g. The control group was treated with oral vehicle (0.5% methyl cellulose in water) daily and intravenous vehicle (saline) once on Day 57. E7449 or vehicle was administered first, and when dosing of all animals was complete carboplatin was administered to animals receiving the combination.
The third experiment consisted of a vehicle control group, 3 groups treated with single agent E7449, E7389, or carboplatin, 3 groups treated with double combinations of E7449+E7389, E7449+carboplatin, and E7389+carboplatin and a group treated with the three-drug combination (Table 3). Sixty mice were inoculated with MDA-MB-436 cells and on Day 41 following implantation, tumor volumes were measured and mice were randomized into 8 treatment groups based on tumor volume (average of 250 mm^3). Following randomization drug treatment was initiated.

SMILES	tumor re-growth following treatment ([1]; E7389 0.1 mg/kg IV Q4Dx3, single agent)	tumor re-growth following treatment ([1]; E7389 0.4 mg/kg IV Q4Dx3, single agent, up to Day 52)	antitumor effect (tumor volume) ([1]; E7389 0.1 and 0.4 mg/kg IV Q4Dx3, single agent)	antitumor effect (tumor volume) ([2]; E7449+E7389 study, E7389 0.4 mg/kg IV Q4Dx4, single agent)	antitumor effect (tumor volume) ([2]; E7449+E7389 study, E7389 1.6 mg/kg IV Q4Dx4, single agent)	antitumor effect (tumor volume), dose dependence ([2]; E7449+E7389 study, E7389 0.4 and 1.6 mg/kg IV Q4Dx4, single agent)	antitumor effect (tumor volume) ([2]; triple combination study, E7389 0.2 mg/kg IV Q4Dx4, single agent, 0.2 mg/kg)	antitumor effect (tumor volume) ([1]; E7449 100 mg/kg PO QDx28, single agent, 100 mg/kg)	antitumor effect (tumor volume) ([2]; E7449+E7389 study, E7449 60 mg/kg PO QDx28, single agent)	antitumor effect (tumor volume) ([2]; E7449+carboplatin study, E7449 60 mg/kg PO QDx28, single agent)	antitumor effect (tumor volume) ([2]; triple combination study, E7449 60 mg/kg PO QDx28, single agent)
C=C1C[C@@H]2CC[C@@]34C[C@H]5OC6[C@@H](O[C@H]7CC[C@H](CC(=O)C[C@@H]8[C@@H](OC)[C@@H](C[C@H](O)CN)O[C@H]8C[C@H]8O[C@@H](CC[C@@H]1O2)C[C@@H](C)C8=C)O[C@@H]7[C@@H]6O3)[C@H]5O4 [E7389, 11, 15:18,21:24,28-triepoxy-7,9-ethano-12,15-methano-9H,15H-furo[3,2-i]furo[2′,3′:5,6]pyrano[4,3-b] [1,4]dioxacyclopentacosin-5(4H)-one, 2-[(2S)-3-amino-2-hydroxypropyl]hexacosahydro-3-methoxy-26-methyl-20,27-bis(methylene)-, (2R,3R,3aS,7R,8aS,9S,10aR,11S,12R,13aR,13bS,15S,18S,21S,24S,26R,28R,29aS)-methanesulfonate (salt)]	began re-growing within days of final E7389 dose	became tumor-free with no palpable tumors observed up to the date of study termination	Tumor regression	modest antitumor effect	tumor regression	Dose dependent antitumor activity	did not significantly inhibit tumor growth				
O=c1[nH]nc2c3c(cccc13)N=C(CN1Cc3ccccc3C1)N2 [E7449]								did not significantly inhibit tumor growth; also recorded: No antitumor activity	modest and statistically significant tumor growth inhibition	modest and statistically significant tumor growth inhibition	statistically significant tumor growth inhibition
